Earlier results as cited in patent EP4752146A1, “NOVEL CA[…] CARRIER-DRUG CONJUGATE COMPRISING SAME” (priority 2023, dated 2025).

Test system: cancer cells
Conditions: background

CC[C@@]1(O)C(=O)OCc2c1cc1n(c2=O)Cc2c-1nc1cc(F)c(C)c3c1c2[C@@H](NC(=O)CO)CC3 [DXd]
activity in cancer cells relative to SN-38 (higher than SN-38): approximately 10 fold

CCc1c2c(nc3ccc(O)cc13)-c1cc3c(c(=O)n1C2)COC(=O)[C@]3(O)CC [SN-38]
IC50 (various cell lines): nanomolar range
